# What was measured:
# [1] = system: Old C57BL/6 mice; assay: Echocardiography in old mice (age-related heart dysfunction); format: in vivo, mouse; details: old mice (26 months), chow diet with urolithin A 50 mg/kg for 2 months
# Procedure: (§1) The goal of the study is to evaluate urolithin treatment effect age-related heart dysfunction. […] Old C57BL/6 mice (26 months) were used as model to reproduce natural decline in heart function with aging. Chow diet with and without urolithin A was administered for 2 months at 50 mg/kg. Post-mortem heart muscles, skeletal muscles, and plasma samples post-mortem were collected at the end of the study. Ejection Fraction (EF), Fractional Shortening (FS) were measured by echocardiography. Muscle contractility was also measured. Analysis of both heart and skeletal muscle function were conducted at the end of the study.
# [2] = system: mitochondrial complex II enzyme SDH; assay: Succinate dehydrogenase activity staining of heart sections; format: in vivo, mouse; details: old mice, 50 mg/kg by gavage for 2 months, vs old vehicle control
# Procedure: (§2) The goal of the study was to evaluate urolithin treatment effect on age-related heart dysfunction. Old C57BL/6 mice (24 months at the end of the study) were used as model to reproduce natural decline in heart function with aging and administered by gavage for 2 months with either Urolithin A at 50 mg/kg (Old UA) or vehicle (Old Vehicle). Young mice (18 weeks-old at the end of the study) were administered with vehicle for 2 months. Post-mortem heart muscles, were collected at the end of the study.
# Hearts in OCT were cut into sections of […] using a cryostat. Sections were then incubated in a solution containing nitroblue tetrazolium (1.5 mM), sodium succinate (130 mM), phenazine methosulphate (0.2 mM), and sodium azide (0.1 mM) for 6 min at room temperature. The reaction was stopped by two washes in PBS. Slides were mounted using Fluoromont mounting medium (Thermofisher, 00-4958-02). All samples were processed successively using the same incubation solution ensuring that they underwent the exact same experimental conditions. Images of the tissues were taken with a bright field microscope. The intensity of the staining was analyzed with Image J.
# [3] = system: gene sets (Cellular Components) repressed with aging in heart; assay: RNA-seq gene set enrichment analysis of heart, old mice; format: in vivo, mouse; details: old mice treated with UA 50 mg/kg for 2 months vs old vehicle
# Procedure: as §2
# RNA-seq analysis from samples derived from example 3 has been performed as described for example 1.
# A Gene set enrichment analysis was performed looking at gene set (i.e., biological pathways) belonging to the category “Cellular Components”.
# [4] = system: heart mitochondria of old C57BL/6 mice; assay: Transmission electron microscopy of heart mitochondria in old mice; format: in vivo, mouse; details: 50 mg/kg by gavage for 2 months, vs old vehicle
# Procedure: as §2
# Muscle samples from animals as described in example 2 were fixed in 2% glutaraldehyde solution 0.1 M Sorenson's buffer (pH 7.3). These samples were later postfixed in 1% osmium tetroxide for 8 min [pulse microwaved (MW), 100 watts (W)] and rinsed in distilled H2O (3×150 W 40 s per step). Samples were dehydrated in a graded series of acetone (25%; 50%; 75%; 3× 100%; 150 W 40 seconds per step) before being impregnated with increasing concentrations of epoxy resin (TAAB medium resin) in acetone (25%; 50%; 75%; 3×100%; 300 W 3 min per step). The samples were then embedded in 100% fresh resin and left to polymerize at 60° C. in a conventional oven for a minimum of 24 h.
# All resin blocks were trimmed using a razor blade to form a trapezoid block face. Sections were cut in a longitudinal or transverse orientation on an ultramicrotome (Wolf et al., 2019) using a diamond knife. Semithin sections (0.5 μm) were stained with toluidine blue and viewed on a light microscope (LM) to verify orientation of tissue. Ultrathin sections (70 nm) were then cut and picked up onto copper grids. Sections from blocks were stained with 1% uranyl acetate (30 min) and 3% lead citrate (7 min). All sections were examined using a HT7800 120 kV TEM (Hitachi). Digital micrographs were captured using an EMSIS Xarosa CMOS Camera with Radius software.
# These samples were later postfixed in 1% osmium tetroxide during 1 h, dehydrated within an increasing concentration of acetone. […]
# Individual heart mitochondria from 3 Young vehicle, 3 Old vehicle and 3 Old UA O-AL mice were manually traced in transverse orientations using ImageJ software (NIH) (https://imagej.nih.gov/ij/) and to quantify the following morphological and shape descriptors: area (μm2), perimeter (μm), circularity 4π×(area/perimeter2), aspect ratio ((major axis)/(minor axis)): the aspect ratio being a measure of the length to width ratio, form factor ((perimeter)/(4π×surface)): a measure sensitive to the complexity and the branched appearance of the mitochondria, Feret's diameter (the longest distance (μm) between two points of the mitochondria studied) and minimum Feret diameter (corresponds to the smallest diameter of the mitochondria) (Picard et al., 2012). […]
# [5] = system: gene sets (Cellular Components) linked to mitochondrial function in heart tissue; assay: RNA-seq gene set enrichment analysis of heart sections, MI rats; format: in vivo, rat; details: MI+UA vs MI rats, 25 mg/kg PO
# Procedure: Heart sections from rats in the groups described in FIG. 1 (Example 1) have been prepared using a microtome, deparaffinized and RNA extracted using the following kit (RNAeasy FFPE 76504, Qiagen). Upon extraction, RNA was quality controlled with Agilent Fragment Analyzer System.
# Library preparation was performed using Strand-specific cDNA library and following the steps here indicated: • rRNA depletion. • mRNA fragmentation. • Random primed cDNA synthesis (strand-specific) • Adapter ligation and adapter specific PCR amplification RNA-seq run was executed with the NovaSeq6000 using S4 flowcells with 2×150 bp.
# QC and preprocessing of raw sequencing reads was performed using an in-house QC pipeline. […] High quality RNA-seq read pairs were mapped to the Ensembl rat reference genome
# Reads with a minimum PHRED score of 15, a minimum length of 15 bp, and a minimum unqualified percent limit of 40 (40%) were retained for downstream analysis. […]
# Gene Set Enrichment Analysis (GSEA) (Subramanian, et al. Proc Natl Acad Sci USA 2005, 102 (43), 15545-50) was performed for characterizing complex relations of gene expression changes with gene ontologies (cellular components), under different biological conditions. […] Gene ranking information is transformed to pathway level to assign statistical significance for each analyzed gene set. […]
# [6] = system: Wistar male rats with myocardial infarction (permanent LAD occlusion); assay: Echocardiography and heart mass after myocardial infarction (LAD ligation); format: in vivo, rat; details: MI rats, 25 mg/kg daily by gavage for 2 months starting one week after MI, vs MI vehicle
# Procedure: The goal of the study is to assess urolithin A treatment effect on heart function after myocardial infarction. […] Myocardial infarction (MI) was induced in 6-week old Wistar male rats from groups 1, 2, and 3 (Table 3), by permanent occlusion of Left Anterior Descending coronary artery (ligation was performed at Do).
# Rats were anesthetized with an intraperitoneal (IP) injection of Medetomidine (0.5 mg/kg) and ketamine (50 mg/kg), intubated and ventilated at 10 mL/kg tidal volume and 70-80 cycles/min. Body temperature were maintained between 36.5° C. and 37.5° C. via a thermoregulated heating pad connected to a rectal probe. Rats were placed in supine position, chest-shaved and prepared for standard surgical conditions. A left lateral thoracotomy was carefully performed so as to expose the heart. Then, a suture was placed around the LAD (4/0 Silk, Ethicon), around 2 mm below the left atrium and close to the interventricular junction, in order to obtain infarct size (IS) near 40% of the total left ventricular (LV) area. Chest was closed, air was expelled from the rib cage to avoid pneumothorax and quick reanimation was performed using atipamezole hydrochloride (IM, 0.5 mg/ml, Zoetis).
# Animals from group 1 were subjected to the same protocol as MI groups. However, after the left lateral thoracotomy exposing the heart, the rib cage were closed without passing the suture thread around LAD.
# Urolithin A or vehicle were administered by gavage at 25 mg/kg starting one week after myocardial infraction. Heart and plasma samples were collected at each time point. Ejection Fraction (EF), Fractional Shortening (FS), Isovolumic relaxation time (IVRT) were measured by echocardiography at 1 month and 2 month time points to evaluate heart function. […]
# Rats were anesthetized with 4% isoflurane in 50% oxygen-50% air mixture and maintained with 2% isoflurane during the procedure. […] Body temperature was monitored and maintained between 36.5-37.5° C. via a rectal probe connected to the thermoregulated heating pad.
# Standard B-mode (Brightness-mode) and M-mode (Motion-mode) images of the heart were obtained in the two-dimensional (2D) parasternal long axis view (PSLA). LV parameters will be measured and calculated as the mean of 3 consecutive cardiac cycles by a single blinded trained operator. • Left Ventricular function LV function is calculated using the LV dimensions parameters previously described. • FS=fractional shortening=[(LVIDd−LVIDs)/LVIDd]*100. It is a calculation based on the difference of dimensions between systole and diastole measured in M-mode. […] It is a calculation based on the difference of volumes between systole and diastole measured in B-mode and M-mode. […]
# [7] = system: Old C57BL/6 mice; assay: Skeletal muscle function (muscle contractility) in old mice; format: in vivo, mouse; details: old mice (26 months), chow diet with urolithin A 50 mg/kg for 2 months
# Procedure: as §1
smiles,measurement,setting,value
O=c1oc2cc(O)ccc2c2ccc(O)cc12 [Urolithin A],"increase in fractional shortening, after high-workload",[1]; after high-workload,+39%
same,"increase in fractional shortening, basally",[1]; basal,+32%
same,SDH enzymatic activity in the heart,[2],significantly increases
same,"gene sets repressed with aging (respirasome, sarcolemma), normalized enrichment score",[3],induced
same,cristae number,[4]; heart mitochondria,significantly increases
same,cristae volume density,[4]; heart mitochondria,significantly increases
same,"mitophagy events, quantified as number of mitolysosomes",[4]; heart,significantly increases
same,mitochondrial area,"[4]; heart, to levels compared to young animals",significantly increased
same,"gene sets repressed with MI (mitochondrial protein-containing complex, respirasome, nucleoids, peroxisomes), normalized enrichment score",[5],induced
same,"cardiac hypertrophy, calculated as heart weight over tibia length",[6],reduces
same,"diastolic function, measured as isovolumetric relaxation time",[6],improves
same,systolic dysfunction measured as Ejection fraction,[6],significantly improves
same,systolic dysfunction measured as Fractional shortening,[6],significantly improves
same,skeletal muscle function,[7],significantly prevents age-related decline

# — patent US20260240807A1, “UROLITHINS FOR IMPROVING CARDIAC FUNCTION AND HEALTH” (Amazentis SA, priority 2022, published 2026)
